This note sets out measurements from patent US7795261B2, “Substituted 1-piperidin-4-yl-4-pyrrolidin-3-yl-piperazine derivatives and their use as neurokinin antagonists” (Janssen Pharmaceutica NV, priority 2002, dated 2010).

Molecules are shown by their SMILES.

In test [1] the target is T1, NK3 (Homo sapiens, UniProt P29371).
T1 sequence (P29371 1-465): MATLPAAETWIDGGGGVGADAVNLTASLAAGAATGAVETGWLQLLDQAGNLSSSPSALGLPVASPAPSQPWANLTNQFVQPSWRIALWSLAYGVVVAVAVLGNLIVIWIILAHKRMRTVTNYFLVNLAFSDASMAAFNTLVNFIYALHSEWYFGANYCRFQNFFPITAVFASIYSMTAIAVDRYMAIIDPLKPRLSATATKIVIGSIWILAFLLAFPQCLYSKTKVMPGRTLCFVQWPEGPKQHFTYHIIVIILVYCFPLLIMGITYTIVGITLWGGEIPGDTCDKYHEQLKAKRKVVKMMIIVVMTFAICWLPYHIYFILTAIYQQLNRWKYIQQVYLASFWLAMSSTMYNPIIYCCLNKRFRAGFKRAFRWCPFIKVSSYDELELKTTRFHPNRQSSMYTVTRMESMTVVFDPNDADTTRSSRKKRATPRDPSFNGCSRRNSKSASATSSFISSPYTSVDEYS
In words: Signal transduction (ST), intracellular Ca++ (FLIPR), NK3. In kind it is cell-based. The following applies: read-out: pIC50 NK3 (converted).

Test [2] has as its target NK1 (Homo sapiens, UniProt P25103). Nature of the test: Signal transduction (ST), intracellular Ca++ (FLIPR), NK1 antagonistic activity. Particulars: read-out: pIC50 NK1 (converted). The format is cell-based. Summed up: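 Confluent cells loaded with 2 μM Fluo3 (1 h, 37 °C, probenecid), preincubated 20 min at RT with antagonist concentration range, then agonist added. Peak Ca++ transient read by FLIPR in Krebs buffer pH 7.4; IC50 by non-linear regression.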

Chain of NK1 (P25103 whole entry): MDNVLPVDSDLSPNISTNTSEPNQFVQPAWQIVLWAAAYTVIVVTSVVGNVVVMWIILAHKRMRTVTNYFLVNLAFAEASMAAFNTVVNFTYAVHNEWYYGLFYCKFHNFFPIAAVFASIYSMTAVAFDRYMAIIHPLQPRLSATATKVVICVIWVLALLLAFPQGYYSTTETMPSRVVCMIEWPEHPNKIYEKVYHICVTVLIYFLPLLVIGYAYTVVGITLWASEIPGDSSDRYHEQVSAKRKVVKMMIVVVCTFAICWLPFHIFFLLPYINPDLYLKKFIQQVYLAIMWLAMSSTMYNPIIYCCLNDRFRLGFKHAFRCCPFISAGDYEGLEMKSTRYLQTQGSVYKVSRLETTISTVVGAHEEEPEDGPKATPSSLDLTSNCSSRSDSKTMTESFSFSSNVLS

Regarding `O=C(c1snnc1-c1ccccc1)N1CCC(N2CCN([C@H]3CCN(C(=O)c4cc(C(F)(F)F)cc(C(F)(F)F)c4)[C@H](Cc4ccccc4)C3)CC2)C1` (some centres unmarked) [Compound 53], the IC50 was 3160 nM in test [1] and 39.8 nM in test [2].
For `N#Cc1cccc(C(=O)N2CCC(N3CCN([C@H]4CCN(C(=O)c5cc(C(F)(F)F)cc(C(F)(F)F)c5)[C@H](Cc5ccccc5)C4)CC3)C2)c1` (some centres unmarked) [Compound 12], in that order: 126 nM and 79.4 nM.
On the same counts, the results for `O=C(C1CCCCC1)N1CCC(N2CCN(C3CCN(C(=O)c4cc(C(F)(F)F)cc(C(F)(F)F)c4)C(Cc4ccccc4)C3)CC2)C1` (single isomer, unassigned) [Compound 402] are 501 nM and 15.8 nM.
On the same counts, the results for `O=C(C1CCCC1)N1CCC(N2CCN([C@H]3CCN(C(=O)c4cc(C(F)(F)F)cc(C(F)(F)F)c4)[C@H](Cc4ccccc4)C3)CC2)C1` (some centres unmarked) [Compound 74] are 501 nM and 20 nM.
As for `CC(C)(C)OC(=O)N1CCC(C(=O)N2CCC(N3CCN([C@H]4CCN(C(=O)c5cc(C(F)(F)F)cc(C(F)(F)F)c5)[C@H](Cc5ccccc5)C4)CC3)C2)CC1` (some centres unmarked) [Compound 210], the figures for the IC50 in test [1] and in test [2] were 7940 nM and 15.8 nM, respectively.
For the molecule `O=C(c1cc(C(F)(F)F)cc(C(F)(F)F)c1)N1CC[C@H](N2CCN(C3CCN(C(=C[N+](=O)[O-])N4CCCC4)C3)CC2)C[C@H]1Cc1ccccc1` (some centres unmarked) [Compound 377], the IC50 is 6310 nM in test [1] and 15.8 nM in test [2].
Take `Cc1cc(C(=O)N2CCC(N3CCN([C@H]4CCN(C(=O)c5cc(C(F)(F)F)cc(C(F)(F)F)c5)[C@H](Cc5ccccc5)C4)CC3)C2)no1` (some centres unmarked) [Compound 47]: the IC50 in test [1] is 3980 nM; in test [2], 39.8 nM.
For `CC1(C(=O)N2CCC(N3CCN([C@H]4CCN(C(=O)c5cc(C(F)(F)F)cc(C(F)(F)F)c5)[C@H](Cc5ccccc5)C4)CC3)C2)CC1` (some centres unmarked) [Compound 73], in that order: 1580 nM and 10 nM.
On the same counts, the results for `CC(C)(C)OCC(=O)N1CCC(N2CCN([C@H]3CCN(C(=O)c4cc(C(F)(F)F)cc(C(F)(F)F)c4)[C@H](Cc4ccccc4)C3)CC2)C1` (some centres unmarked) [Compound 388] are 794 nM and 15.8 nM.
As to `CC(C)(C)OC(=O)N1CCC(N2CCN(C3CCN(C(=O)c4cc(C(F)(F)F)cc(C(F)(F)F)c4)C(Cc4ccccc4)C3)CC2)C1` (centres unmarked) [Compound 130], the values for the IC50 in test [1] and in test [2] were 3160 nM and 39.8 nM, respectively.
On the same counts, the results for `CC(C(=O)N1CCC(N2CCN([C@H]3CCN(C(=O)c4cc(C(F)(F)F)cc(C(F)(F)F)c4)[C@H](Cc4ccc(F)c(F)c4)C3)CC2)C1)c1ccccc1` (single isomer, unassigned) [Compound 233] are 794 nM and 25.1 nM.
Consider `O=C(c1ccccc1Cl)N1CCC(N2CCN(C3CCN(C(=O)c4cc(C(F)(F)F)cc(C(F)(F)F)c4)C(Cc4ccccc4)C3)CC2)C1` (single isomer, unassigned) [Compound 87], for which the values for the IC50 in test [1] and in test [2] were 1260 nM and 126 nM, respectively.
For `Cc1ccccc1-n1cncc1CN1CCC(N2CCN([C@H]3CCN(C(=O)c4cc(C(F)(F)F)cc(C(F)(F)F)c4)[C@H](Cc4ccccc4)C3)CC2)C1` (some centres unmarked) [Compound 9], in that order: 1260 nM and 39.8 nM.
On the same counts, the results for `CC(=O)OCC(=O)N1CCC(N2CCN(C3CCN(C(=O)c4cc(C(F)(F)F)cc(C(F)(F)F)c4)C(Cc4ccccc4)C3)CC2)C1` (centres unmarked) [Compound 389] are 6310 nM and 15.8 nM.
As to `O=C(C1CC1)N1CCC(N2CCN([C@@H]3CCN(C(=O)c4cc(C(F)(F)F)cc(C(F)(F)F)c4)[C@H](Cc4ccc(Cl)c(Cl)c4)C3)CC2)C1` (relative stereo) [Compound 143], the IC50 in test [1] was 3160 nM; in test [2], 39.8 nM.
For the molecule `CC(C)(C)OC(=O)N1CCCC(C(=O)N2CCC(N3CCN([C@H]4CCN(C(=O)c5cc(C(F)(F)F)cc(C(F)(F)F)c5)[C@H](Cc5ccccc5)C4)CC3)C2)C1` (some centres unmarked) [Compound 229], the figures for the IC50 in test [1] and in test [2] were 2510 nM and 31.6 nM, respectively.
For `CC(C)N1CC(CN2CCC(N3CCN(C4CCN(C(=O)c5cc(C(F)(F)F)cc(C(F)(F)F)c5)C(Cc5ccccc5)C4)CC3)C2)OC1=O` (centres unmarked) [Compound 385], in that order: 3980 nM and 31.6 nM.
On the same counts, the results for `Cc1noc(C)c1C(=O)N1CCC(N2CCN([C@H]3CCN(C(=O)c4cc(C(F)(F)F)cc(C(F)(F)F)c4)[C@H](Cc4ccccc4)C3)CC2)C1` (some centres unmarked) [Compound 48] are 2510 nM and 15.8 nM.
For `O=C(C1CCOC1)N1CCC(N2CCN(C3CCN(C(=O)c4cc(C(F)(F)F)cc(C(F)(F)F)c4)C(Cc4ccc(F)c(F)c4)C3)CC2)C1` (single isomer, unassigned) [Compound 227], in that order: 1580 nM and 3.16 nM.
On to `O=C(Cn1cnc2ccccc21)N1CCC(N2CCN([C@H]3CCN(C(=O)c4cc(C(F)(F)F)cc(C(F)(F)F)c4)[C@H](Cc4ccccc4)C3)CC2)C1` (some centres unmarked) [Compound 208], for which the IC50 in test [1] was 2510 nM; in test [2] it was 15.8 nM.
On the same counts, the results for `N#Cc1cccc(C(=O)N2CCC(N3CCN(C4CCN(C(=O)c5cc(C(F)(F)F)cc(C(F)(F)F)c5)C(Cc5ccccc5)C4)CC3)C2)c1` (single isomer, unassigned) [Compound 193] are 501 nM and 7.94 nM.
On the same counts, the results for `Cc1oc(-c2ccccc2)cc1C(=O)N1CCC(N2CCN([C@H]3CCN(C(=O)c4cc(C(F)(F)F)cc(C(F)(F)F)c4)[C@H](Cc4ccccc4)C3)CC2)C1` (some centres unmarked) [Compound 38] are 7940 nM and 200 nM.
On the same counts, the results for `O=C1CC[C@H](C(=O)N2CCC(N3CCN([C@H]4CCN(C(=O)c5cc(C(F)(F)F)cc(C(F)(F)F)c5)[C@H](Cc5ccccc5)C4)CC3)C2)O1` (some centres unmarked) [Compound 387] are 5010 nM and 20 nM.
On to `O=C(c1ccc(CCOCc2ccccc2)s1)N1CCC(N2CCN(C3CCN(C(=O)c4cc(C(F)(F)F)cc(C(F)(F)F)c4)C(Cc4ccccc4)C3)CC2)C1` (centres unmarked) [Compound 356], for which the figures for the IC50 in test [1] and in test [2] were 3980 nM and 126 nM, respectively.
Turning to `O=C(C(NCCO)c1ccccc1)N1CCC(N2CCN([C@H]3CCN(C(=O)c4cc(C(F)(F)F)cc(C(F)(F)F)c4)[C@H](Cc4ccccc4)C3)CC2)C1` (some centres unmarked) [Compound 106], the IC50 in test [1] was 3980 nM; in test [2] it was 31.6 nM.
For `O=C(CN1CCOC1=O)N1CCC(N2CCN([C@H]3CCN(C(=O)c4cc(C(F)(F)F)cc(C(F)(F)F)c4)[C@H](Cc4ccccc4)C3)CC2)C1` (some centres unmarked) [Compound 215], in that order: 5010 nM and 31.6 nM.
For the molecule `Cc1nnsc1C(=O)N1CCC(N2CCN([C@H]3CCN(C(=O)c4cc(C(F)(F)F)cc(C(F)(F)F)c4)[C@H](Cc4ccccc4)C3)CC2)C1` (some centres unmarked) [Compound 51], the results for the IC50 in test [1] and in test [2] were 3980 nM and 63.1 nM, respectively.
Consider `O=C(c1cccnc1Cl)N1CCC(N2CCN([C@H]3CCN(C(=O)c4cc(C(F)(F)F)cc(C(F)(F)F)c4)[C@H](Cc4ccccc4)C3)CC2)C1` (some centres unmarked) [Compound 168], for which the IC50 in test [1] was 501 nM; in test [2], 7.94 nM.
On the same counts, the results for `O=C(c1ccno1)N1CCC(N2CCN([C@H]3CCN(C(=O)c4cc(C(F)(F)F)cc(C(F)(F)F)c4)[C@H](Cc4ccccc4)C3)CC2)C1` (some centres unmarked) [Compound 68] are 1580 nM and 31.6 nM.
On the same counts, the results for `Cn1c(C(=O)N2CCC(N3CCN([C@H]4CCN(C(=O)c5cc(C(F)(F)F)cc(C(F)(F)F)c5)[C@H](Cc5ccccc5)C4)CC3)C2)cc2ccccc21` (some centres unmarked) [Compound 57] are 3160 nM and 126 nM.
On the same counts, the results for `O=C(c1ccoc1)N1CCC(N2CCN(C3CCN(C(=O)c4cc(C(F)(F)F)cc(C(F)(F)F)c4)C(Cc4ccccc4)C3)CC2)C1` (single isomer, unassigned) [Compound 138] are 6310 nM and 126 nM.
Consider `O=C(c1ccc(F)c(F)c1)N1CCC(N2CCN([C@H]3CCN(C(=O)c4cc(C(F)(F)F)cc(C(F)(F)F)c4)[C@H](Cc4ccccc4)C3)CC2)C1` (some centres unmarked) [Compound 20], for which the IC50 in test [1] was 5010 nM; in test [2] it was 126 nM.
For `Cc1nc(C)c(C(=O)N2CCC(N3CCN([C@H]4CCN(C(=O)c5cc(C(F)(F)F)cc(C(F)(F)F)c5)[C@H](Cc5ccccc5)C4)CC3)C2)s1` (some centres unmarked) [Compound 50], in that order: 3160 nM and 6.31 nM.
Take `Cc1cc(C(=O)N2CCC(N3CCN([C@H]4CCN(C(=O)c5cc(C(F)(F)F)cc(C(F)(F)F)c5)[C@H](Cc5ccccc5)C4)CC3)C2)c(C)o1` (some centres unmarked) [Compound 37]: the results for the IC50 in test [1] and in test [2] were 2000 nM and 39.8 nM, respectively.
As for `O=C(c1csnn1)N1CCC(N2CCN([C@H]3CCN(C(=O)c4cc(C(F)(F)F)cc(C(F)(F)F)c4)[C@H](Cc4ccccc4)C3)CC2)C1` (some centres unmarked) [Compound 52], the results for the IC50 in test [1] and in test [2] were 631 nM and 31.6 nM, respectively.
Turning to `O=C(c1cc(C(F)(F)F)cc(C(F)(F)F)c1)N1CCC(N2CCN(C3CCN(Cc4ccccc4)C3)CC2)CC1Cc1ccc(F)c(F)c1` (single isomer, unassigned) [Compound 222], the IC50 in test [1] is 6310 nM; in test [2] it was 50.1 nM.
For `O=C(C1CCc2cc(F)ccc2O1)N1CCC(N2CCN([C@H]3CCN(C(=O)c4cc(C(F)(F)F)cc(C(F)(F)F)c4)[C@H](Cc4ccccc4)C3)CC2)C1` (some centres unmarked) [Compound 61], in that order: 6310 nM and 31.6 nM.
